Experimental data: article PMC12588083, “Validated antimalarial drug target discovery using genome-scale metabolic modeling” (Antimicrobial Agents and Chemotherapy, 2025)

Tested on: synchronised Plasmodium falciparum 3D7 cultures
Assay: In vitro flux measurements of glucose and amino acids in spent media
Format: cell-based
Conditions: ± SD, positive = into infected red blood cell, negative = efflux into media; for flux 6 - 18 hps: early to mid-ring stage; for flux 42 - 48 hps: late schizont stage; for flux 30 - 36 hps: late trophozoite stage
Experimental: Cultures were synchronized with 5% sorbitol ([36]). Synchronized cultures with a total volume of 18 mL at 1% parasitemia and 5% hematocrit were placed in nonvented 75 cm^2 tissue culture flasks (Nunclon). Red blood cells at 5% hematocrit were used as control. One milliliter of culture was collected at time 0 and every 6 hours until 48 hours post synchronization. The collected sample was placed in a 1.5 mL microcentrifuge tube and centrifuged at 3,000 RPM for 2 minutes. The spent media were collected and stored at −80°C prior to analysis. Three biological replicates were analyzed.
A glucose assay on the spent media was performed using a glucose oxidase-peroxidase format assay kit (Megazyme). Amino acid concentrations in the spent media were determined using an Ultimate 3000 High-Performance Liquid Chromatography system (Dionex, UK). A ramp gradient reverse-phase chromatography was done with an Acclaim 120 C18 (Dionex, UK) 100 × 2.1 mm column (3 µm particle size, 120 Å pore size) stationary phase. Eluent A (10 mM Na2HPO4, 10 mM Na2HB4O7·10 H2O, 0.5 mM NaN3, pH 8.2) and eluent B (45% methanol [vol/vol] 45% acetonitrile [vol/vol] in water) constituted the mobile phase (Table S1).
Samples were derivatized manually within 10 minutes prior to chromatography. The derivatization procedure was done in a 1.5 mL microcentrifuge tube at room temperature by adding the following reagents in this particular order:
Spent media for both infected and uninfected (control) samples were assayed for glucose and amino acid concentrations as detailed above. The net metabolite flux from time 0 ( t0 ) to time n ( tn ) was calculated using the formula:
fluxt0-tn=vt0×∆Ci-∆Cu/gDWt0×∆t
The parasite mass gDWt0 was determined using the calculated number of parasites based on the parasitemia, hematocrit, and the volume at t0 :
In this case, it was assumed for simplicity that each infected RBC contained only one parasite. […] Flux calculations were done to represent the three main blood stage forms: the change in concentration from t6 to t18 was used to calculate the early to mid-ring stage flux, from t30 to t36 for the late trophozoite, and from t42 to t48 for the late schizont stage. […] A positive flux represents the entry of metabolites into the model, while a negative flux represents the movement of metabolites into the external environment.
Supplementary Table 5 Experimental glucose and amino acid flux measurements. […] A positive flux indicates movement of the metabolite into the infected red blood cell while a negative flux indicates efflux of the metabolite into the media.

| Structure (SMILES) | flux 6 - 18 hps [mmol/gDW/hr] | flux 42 - 48 hps [mmol/gDW/hr] | flux 30 - 36 hps [mmol/gDW/hr] |
| --- | --- | --- | --- |
| NCC(=O)O [Glycine] | -0.014 ± 0.028 | 0.037 ± 0.17 | -0.0093 ± 0.12 |
| C[C@H](N)C(=O)O [L-Alanine] | -0.023 ± 0.017 | 0.00 ± 0.024 | -0.041 ± 0.036 |
| N=C(N)NCCC[C@H](N)C(=O)O [L-Arginine] | 0.072 ± 0.11 | 0.22 ± 0.35 | -0.15 ± 0.49 |
| NC(=O)C[C@H](N)C(=O)O [L-Asparagine] | -0.0094 ± 0.011 | 0.070 ± 0.17 | -0.10 ± 0.12 |
| N[C@@H](CC(=O)O)C(=O)O [L-Aspartic acid] | 0.0048 ± 0.011 | 0.019 ± 0.058 | 0.00 ± 0.029 |
| N[C@@H](CCC(=O)O)C(=O)O [L-Glutamic acid] | -0.019 ± 0.0081 | 0.0047 ± 0.077 | -0.056 ± 0.024 |
| NC(=O)CC[C@H](N)C(=O)O [L-Glutamine] | 0.00 ± 0.023 | 0.36 ± 0.72 | -0.40 ± 0.63 |
| N[C@@H](Cc1c[nH]cn1)C(=O)O [L-Histidine] | -0.0073 ± 0.013 | 0.066 ± 0.076 | -0.066 ± 0.095 |
| CC[C@H](C)[C@H](N)C(=O)O [L-Isoleucine] | 0.017 ± 0.023 | 0.081 ± 0.14 | -0.062 ± 0.14 |
| CC(C)C[C@H](N)C(=O)O [L-Leucine] | 0.28 ± 0.065 | 0.047 ± 0.10 | -0.14 ± 0.070 |
| NCCCC[C@H](N)C(=O)O [L-Lysine] | 0.00 ± 0.064 | 0.073 ± 0.29 | 0.038 ± 0.20 |
| CSCC[C@H](N)C(=O)O [L-Methionine] | 0.0024 ± 0.0082 | 0.028 ± 0.025 | -0.028 ± 0.025 |
| N[C@@H](Cc1ccccc1)C(=O)O [L-Phenylalanine] | -0.0099 ± 0.016 | 0.025 ± 0.023 | -0.035 ± 0.0086 |
| N[C@@H](CO)C(=O)O [L-Serine] | -0.019 ± 0.021 | 0.062 ± 0.11 | -0.062 ± 0.091 |
| C[C@@H](O)[C@H](N)C(=O)O [L-Threonine] | -0.014 ± 0.026 | 0.028 ± 0.099 | -0.038 ± 0.050 |
| N[C@@H](Cc1c[nH]c2ccccc12)C(=O)O [L-Tryptophan] | 0.0026 ± 0.0045 | 0.010 ± 0.024 | 0.010 ± 0.036 |
| N[C@@H](Cc1ccc(O)cc1)C(=O)O [L-Tyrosine] | -0.0051 ± 0.0044 | -0.046 ± 0.17 | -0.031 ± 0.031 |
| CC(C)[C@H](N)C(=O)O [L-Valine] | -0.036 ± 0.098 | 0.024 ± 0.12 | -0.0096 ± 0.022 |
